Experimental data reported in paper PMC12067315 (European journal of medicinal chemistry, 2022).
Read-outs that look alike come from different tables or passages of the source.

Assays:
α2C [1] = conditions: read-out: α2C (nM), literature Kb; literature Kb values; cited from earlier work
α2A [2] = conditions: read-out: α2A (nM), literature Kb; literature Kb values; cited from earlier work
α2A-AR = target: T1, α2A-AR (Homo sapiens, UniProt P08913); format: binding
T1 sequence (P08913 1-465): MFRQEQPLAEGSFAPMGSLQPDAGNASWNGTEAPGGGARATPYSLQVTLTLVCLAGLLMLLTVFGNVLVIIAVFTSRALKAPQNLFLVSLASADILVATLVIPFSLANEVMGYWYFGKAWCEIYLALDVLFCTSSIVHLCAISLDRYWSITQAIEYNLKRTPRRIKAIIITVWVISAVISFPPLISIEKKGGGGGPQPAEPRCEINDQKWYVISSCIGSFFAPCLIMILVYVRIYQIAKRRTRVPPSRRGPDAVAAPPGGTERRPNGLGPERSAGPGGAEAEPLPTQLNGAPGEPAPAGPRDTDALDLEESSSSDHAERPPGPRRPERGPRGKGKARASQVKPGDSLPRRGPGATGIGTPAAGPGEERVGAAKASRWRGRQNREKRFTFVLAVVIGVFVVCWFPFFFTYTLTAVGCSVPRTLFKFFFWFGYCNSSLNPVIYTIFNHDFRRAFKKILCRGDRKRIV

α2C-AR = target: T2, α2C-AR (Homo sapiens, UniProt P18825); format: binding; conditions: for Subtype Selectivity (α2A/α2C): ratio between Ki for α2A vs. α2C
T2 sequence (P18825 1-462): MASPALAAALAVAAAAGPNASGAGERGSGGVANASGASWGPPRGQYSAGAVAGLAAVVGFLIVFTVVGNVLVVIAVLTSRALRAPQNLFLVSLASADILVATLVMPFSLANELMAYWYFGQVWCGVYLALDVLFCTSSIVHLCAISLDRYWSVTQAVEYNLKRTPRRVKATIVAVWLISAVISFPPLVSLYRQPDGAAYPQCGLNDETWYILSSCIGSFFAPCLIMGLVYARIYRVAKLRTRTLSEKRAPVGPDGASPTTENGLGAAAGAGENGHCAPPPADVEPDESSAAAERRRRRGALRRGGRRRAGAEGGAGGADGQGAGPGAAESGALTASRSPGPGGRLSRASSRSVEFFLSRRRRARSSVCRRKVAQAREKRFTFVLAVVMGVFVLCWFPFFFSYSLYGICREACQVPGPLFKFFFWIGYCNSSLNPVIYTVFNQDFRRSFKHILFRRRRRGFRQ

α2C [3] = conditions: read-out: α2C (nM), literature Ki; literature Ki values; cited from earlier work
α2A [4] = conditions: read-out: α2A (nM), literature Ki; literature Ki values; cited from earlier work
α2C [5] = conditions: read-out: α2C (nM), literature Kd; literature Kd values; cited from earlier work
α2A [6] = conditions: read-out: α2A (nM), literature Kd; literature Kd values; cited from earlier work

For `COCc1scnc1N1CCN(C[C@H]2COc3ccccc3O2)CC1` [Compound 1, (S)-4-(4-((2,3-dihydrobenzo[b][1,4]dioxin-2-yl)methyl)piperazin-1-yl)-5-(methoxymethyl)thiazole], the Kb (α2C [1]) is listed as < 0.1 nM, the Kb (α2A [2]) is listed as 88 nM and the Ki (α2A-AR) is listed as 1.06 ± 0.52 nM. The Ki (α2C-AR) was 0.25 ± 0.01 nM and the “Subtype Selectivity (α2A/α2C)” value (α2C-AR) was 4.24.
In the case of `COCc1c(C)nn(C)c1N1CCN(C[C@H]2COc3ccccc3O2)CC1` [Compound 2, (S)-1-((2,3-dihydrobenzo[b][1,4]dioxin-2-yl)methyl)-4-(4-(methoxymethyl)-1,3-dimethyl-1H-pyrazol-5-yl)-piperazine], the Kb (α2C [1]) is given as 1.62 nM, the Kb (α2A [2]) is given as 306 nM and the Ki (α2A-AR) is given as 12.3 ± 1.2 nM. The Ki (α2C-AR) was 0.74 ± 0.1 nM and the “Subtype Selectivity (α2A/α2C)” value (α2C-AR) was 16.6.
In the case of `COc1ccccc1C1=CC(=O)N([C@H]2CCCN(C[C@H]3COc4ccccc4O3)C2)C1` [Compound 3, 1-((S)-1-(((S)-2,3-dihydrobenzo[b][1,4]dioxin-2-yl)methyl)piperidin-3-yl)-4-(2-methoxyphenyl)-1,5-dihydro-2H-pyrrol-2-one], the Kb (α2C [1]) is given as < 0.001 nM, the Kb (α2A [2]) is given as > 449 nM and the Ki (α2A-AR) is given as 458 ± 26 nM. The “Subtype Selectivity (α2A/α2C)” value (α2C-AR) was 751,000.
For `COc1cccc(-n2nc(C)cc2N2CCN(C[C@H]3COc4ccccc4O3)CC2)n1` [Compound 4, (S)-1-((2,3-dihydrobenzo[b][1,4]dioxin-2-yl)methyl)-4-(1-(6-methoxypyridin-2-yl)-3-methyl-1H-pyrazol-5-yl)piperazine], the Kb (α2C [1]) is given as 0.29 nM, the Kb (α2A [2]) is given as 82 nM and the Ki (α2A-AR) is given as 2.77 ± 0.58 nM. For the same molecule, the Ki (α2C-AR) was 0.4 ± 0.07 nM and the “Subtype Selectivity (α2A/α2C)” value (α2C-AR) was 6.93.
For `COCc1cccnc1N1CCN(C[C@H]2COc3ccccc3O2)CC1` [ORM-13070, (S)-1-((2,3-dihydrobenzo[b][1,4]dioxin-2-yl)methyl)-4-(3-(methoxymethyl)pyridin-2-yl)piperazine, reference compound], the Ki (α2C [3]) is listed as 3.8 nM, the Ki (α2A [4]) is listed as 109 nM and the Ki (α2A-AR) is listed as 2.8 ± 0.2 nM. For the same molecule, the Ki (α2C-AR) was 0.25 ± 0.09 nM and the “Subtype Selectivity (α2A/α2C)” value (α2C-AR) was 11.2.
In the case of `CCS(=O)(=O)N1CCC[C@@H]2CN3CCc4cc(OC)ccc4[C@@H]3C[C@@H]21` [RS79948, reference compound], the Kd (α2C [5]) is given as 0.77 nM, the Kd (α2A [6]) is given as 0.6 nM and the Ki (α2A-AR; read-out: α2A (Ki), HEK293 membranes, 1 nM [3H]RX821002, Ki ± standard deviation) is given as 0.16 ± 0.12 nM. For the same molecule, the “Subtype Selectivity (α2A/α2C)” value (α2C-AR) was 0.55 and the Ki (α2C-AR; read-out: α2C (Ki), HEK293 membranes, 1 nM [3H]RX821002, Ki ± standard deviation) was 0.29 ± 0.08 nM.
